Measurements taken from patent US20210355107A1, “MULTI-SUBSTITUTED PYRIDONE DERIVATIVES AND MEDICAL USE THEREOF” (Beijing Yuezhikangtai Biomedicines Co., Ltd., priority 2018, published 2021).

What was measured:
[1] = target: T1, tyrosine kinase Mer (Homo sapiens, UniProt Q12866); assay: HTRF assay, inhibitory activity against tyrosine kinase Mer; type: biochemical; settings: ATP at Km (30 μM), two duplicate wells
T1 construct: purchased Carna 08-108
T1 sequence (Q12866 528-999 limits assumed): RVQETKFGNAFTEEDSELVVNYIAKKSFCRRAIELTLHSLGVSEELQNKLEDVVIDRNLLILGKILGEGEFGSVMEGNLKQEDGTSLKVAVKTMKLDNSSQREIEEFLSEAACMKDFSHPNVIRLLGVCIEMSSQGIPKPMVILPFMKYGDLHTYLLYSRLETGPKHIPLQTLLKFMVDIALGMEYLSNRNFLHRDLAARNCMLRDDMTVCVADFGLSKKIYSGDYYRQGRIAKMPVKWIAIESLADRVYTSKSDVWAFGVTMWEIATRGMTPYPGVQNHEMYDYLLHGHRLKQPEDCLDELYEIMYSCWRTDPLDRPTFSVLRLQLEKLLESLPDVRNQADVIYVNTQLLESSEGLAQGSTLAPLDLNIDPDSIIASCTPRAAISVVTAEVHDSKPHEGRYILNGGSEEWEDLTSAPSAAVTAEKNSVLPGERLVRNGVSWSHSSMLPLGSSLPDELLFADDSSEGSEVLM
Experimental: (§1) Test Example 2: Evaluation of Inhibitory Activity (IC50) of Compounds disclosed herein against Tyrosine Kinases Mer and Tyro3
(§2) In this test, HTRF method was used to test the inhibitory activity of compounds when ATP concentrations correspond to the Km of the kinases. The control substance was RXDX-106. The concentration of test compound was 3-fold diluted from an initial concentration of 10 μM, and two duplicate wells were set.
(§3) Kinase Mer (Carna, Cat. No. 08-108, Lot. No. 14CBS-0421H); Tyro3 (Carna, Cat. No. 08-109, Lot. No. 08CBS-1186H); HTRF kinase-TK kit (Cisbio, Cat. No. 62TK0PEC), the kit comprising: biotin-TK substrate lyophilized powder (Cisbio, Cat. No. 61TK0BLC, Lot. No. 07A), streptavidin-XL665 (Cisbio, Cat. No. 610SAXLG, Lot. No. 126A), TK antibody-cryptate (Cisbio, Cat. No. 610SAXLG, Lot. No. 04A), and detection buffer (including EDTA) (Cisbio, Cat. No. 62TK0PEC, Lot. No. 12A); ATP (Sigma, Cat. No. A7699-5G, CAS No. 34369-07-8, Lot. No. SLBQ6014V); DMSO (Sigma, Cat. No. D5879-1L, Lot. No. SHBH9944); HEPES (Sigma, Cat. No. V900477-500G, CAS No. 7365-45-9, Lot. No. WXBC4716V); MgCl2 (Sigma, Cat. No. 208337-1KG, Lot. No. MKBX9508V); EGTA (Sigma, Cat. No. E3889-100g, CAS 67-42-5, […], Lot. No. SLBG8546V); NP-40 (Beijing Dingguo, Cat. No. DH218, Lot. No. 36R00160); DTT (Sigma, Cat. No. D0632-25g, CAS No. 3483-12-3, Lot. No. SLBF3964V); compound plate (Labcyte, Cat. No. LP0200, Lot. No. 0006386836); assay plate (Greiner, Cat. No. 784075, Lot. No. E16123HM); control substance RXDX-106 (prepared according to the method disclosed in patent WO2013074633).
(§4) 1) Preparation of a buffer: 50 mM HEPES, 10 mM MgCl2, 1 mM EGTA, 0.01% NP-40, 2 mM DTT.
(§5) 2) Preparation of control substance and test samples: RXDX-106 and the compounds disclosed herein were each dissolved in DMSO to 10 mM and then diluted to 1 mM or an appropriate concentration with DMSO, and then serial double dilution was performed using BRAVO (Agilent). 100 nL of each was transferred from a compound plate (Labcyte-LP0200) to an assay plate (Greiner-784075) using ECHO 555 (Labcyte). The final concentration of DMSO was 1%.
(§6) 3) Mer and Tyro3 were each diluted to 0.5 nM and 1.2 nM with the detection buffer (Cisbio, Cat. No. 62TK0PEC, Lot. No. 12A). 5 μL of each was added to a 384-well plate and incubated with the compounds disclosed herein for 30 min at 22-25° C. Final concentrations of Mer and Tyro3 were 0.25 nM and 0.6 nM, respectively.
(§7) 4) Biotin-TK substrate and ATP were each diluted to a concentration twice the final concentration with 1× kinase buffer made up of HEPES, NaN3, BSA and orthovanadate. 5 μL of the mixture of substrate and ATP was added to the 384-well plate to initiate the reaction, which lasts for 1 h at 22-25° C.
(§8) 5) Streptavidin-XL665 and TK antibody-cryptate were diluted to 250 nM and 0.5 nM, respectively, with the detection buffer. […] of each of the two solutions was added to the 384-well plate to initiate the reaction, which lasts for 1 h at 22-25° C. The final concentrations of streptavidin-XL665 and TK antibody-cryptate were 125 nM and 0.25 nM, respectively.
(§9) 6) The fluorescence intensities at 665 nm and 615 nm were read with an Envision Reader (PerkinElmer) .
(§10) 7) IC50 values of the compounds were fitted with XL-fit software.

[2] = target: T2, tyrosine kinase Tyro3 (Homo sapiens, UniProt Q06418); assay: HTRF assay, inhibitory activity against tyrosine kinase Tyro3; type: biochemical; settings: ATP at Km (50 μM), two duplicate wells
T2 construct: purchased Carna 08-109
T2 sequence (Q06418 453-890 limits assumed): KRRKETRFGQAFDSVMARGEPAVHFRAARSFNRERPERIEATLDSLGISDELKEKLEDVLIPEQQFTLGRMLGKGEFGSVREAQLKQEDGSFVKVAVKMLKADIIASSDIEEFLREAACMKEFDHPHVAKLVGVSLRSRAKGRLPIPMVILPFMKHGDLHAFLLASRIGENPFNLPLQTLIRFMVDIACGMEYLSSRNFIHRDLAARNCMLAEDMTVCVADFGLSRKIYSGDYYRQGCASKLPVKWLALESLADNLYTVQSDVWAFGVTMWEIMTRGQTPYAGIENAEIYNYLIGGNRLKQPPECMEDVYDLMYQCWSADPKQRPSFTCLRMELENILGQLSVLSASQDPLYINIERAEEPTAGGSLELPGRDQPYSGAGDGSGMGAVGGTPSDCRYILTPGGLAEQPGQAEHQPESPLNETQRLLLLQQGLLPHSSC
Experimental: as §1, §2, §3, §4, §5, §6, §7, §8, §9, §10

Structure (SMILES) | IC50 [1] | IC50 [2]
CC(C)n1cc(C(=O)Nc2ccc(-c3cc(-c4cnn(C)c4)cnc3N)c(F)c2)c(=O)c(-c2ccc(F)cc2)c1C#N [Example 4, N-(4-(2-amino-5-(1-methyl-1H-pyrazol-4-yl)pyridin-3-yl)-3-fluorophenyl)-6-cyano-5-(4-fluorophenyl)-1-isopropyl-4-oxo-1,4-dihydropyridine-3-carboxamide] | 0.78 nM | 2.67 nM
CC(C)n1cc(C(=O)Nc2ccc(-c3cc(-c4cnn(C5CCN(C)CC5)c4)cnc3N)c(F)c2)c(=O)c(-c2ccc(F)cc2)c1C#N [Example 7, N-(4-(2-amino-5-(1-(1-methylpiperidin-4-yl)-1H-pyrazol-4-yl)-pyridin-3-yl)-3-fluorophenyl)-6-cyano-5-(4-fluorophenyl)-1-isopropyl-4-oxo-1,4-dihydro-pyridine-3-carboxamide] | 0.63 nM | 1.77 nM
COc1cc2nccc(Oc3ccc(NC(=O)c4cn(C(C)C)c(C#N)c(-c5ccc(F)cc5)c4=O)cc3F)c2cc1OC [Example 24, 6-cyano-N-(4-((6,7-dimethoxyquinolin-4-yl)oxy)-3-fluoro-phenyl)-5-(4-fluorophenyl)-1-isopropyl-4-oxo-1,4-dihydropyridine-3-carboxamide] | 11.4 nM | 15.5 nM
CCn1cc(-c2cnc(N)c(-c3cc(F)c(NC(=O)c4cn(C(C)C)c(C#N)c(-c5ccc(F)cc5)c4=O)cc3F)c2)cn1 [Example 33, N-(4-(2-amino-5-(1-ethyl-1H-pyrazol-4-yl)pyridin-3-yl)-2,5-difluorophenyl)-6-cyano-5-(4-fluorophenyl)-1-isopropyl-4-oxo-1,4-dihydropyridine-3-carboxamide] | 0.92 nM | 0.5 nM
[2H]C([2H])([2H])n1cc(-c2cnc(N)c(-c3cc(F)c(NC(=O)c4cn(C(C)C)c(C#N)c(-c5ccc(F)cc5)c4=O)cc3F)c2)cn1 [Example 34, N-(4-(2-amino-5-(1-methyl-d3-1H-pyrazol-4-yl)pyridin-3-yl)-2,5-difluorophenyl)-6-cyano-5-(4-fluorophenyl)-1-isopropyl-4-oxo-1,4-dihydropyridine-3-carboxamide] | 1.16 nM | 1.16 nM

Continued by falling IC50 [1], values first:

IC50 [1] | IC50 [2] | Structure (SMILES)
2.17 nM | 30.2 nM | CCn1cc(-c2cnc(N)c(-c3ccc(NC(=O)c4cn(C5CC5)c(C#N)c(-c5ccc(F)cc5)c4=O)cc3F)c2)cn1 [Example 10, N-(4-(2-amino-5-(1-ethyl-1H-pyrazol-4-yl)pyridin-3-yl)-3-fluorophenyl)-6-cyano-5-(4-fluorophenyl)-1-cyclopropyl-4-oxo-1,4-dihydropyridine-3-carboxamide]
1.17 nM | 1.8 nM | CC(C)n1cc(C(=O)Nc2cc(F)c(-c3cc(-c4cnn(C)c4)cnc3N)cc2F)c(=O)c(-c2ccc(F)cc2)c1C#N [Example 6, N-(4-(2-amino-5-(1-methyl-1H-pyrazol-4-yl)pyridin-3-yl)-2,5-difluorophenyl)-6-cyano-5-(4-fluorophenyl)-1-isopropyl-4-oxo-1,4-dihydropyridine-3-carboxamide]
1.11 nM | 2.27 nM | CCn1cc(-c2cnc(N)c(-c3ccc(NC(=O)c4cn(C(C)C)c(C#N)c(-c5ccc(F)cc5)c4=O)cc3F)c2)cn1 [Example 3, N-(4-(2-amino-5-(1-ethyl-1H-pyrazol-4-yl)pyridin-3-yl)-3-fluoro-phenyl)-6-cyano-5-(4-fluorophenyl)-1-isopropyl-4-oxo-1,4-dihydropyridine-3-carboxamide]
0.62 nM | 1.18 nM | CC(C)n1cc(C(=O)Nc2ccc(-c3cc(-c4cnn(C5CCNCC5)c4)cnc3N)c(F)c2)c(=O)c(-c2ccc(F)cc2)c1C#N [Example 2, N-(4-(2-amino-5-(1-(piperidin-4-yl)-1H-pyrazol-4-yl)pyridin-3-yl)-3-fluorophenyl)-6-cyano-5-(4-fluorophenyl)-1-isopropyl-4-oxo-1,4-dihydropyridine-3-carboxamide]
